Key:
[1] = tested on: LL97A cells; test: LL97A lung fibroblast cell proliferation (cell count); assay type: cell-based; conditions: LL97A human lung fibroblast cells from a subject with idiopathic pulmonary fibrosis, F12K 1% FBS, 5 days; FIG. 6
Procedure: LL97A cells were treated with Oxy210 at the concentrations as indicated in F12K containing 1% FBS for 5 days and then were trypsinized and counted.

[2] = tested on: TGFβ target genes; test: Basal expression of TGFβ target genes by Q-RT-PCR in primary human liver stellate cells; assay type: cell-based; conditions: DMEM 1% FBS, 48 hours, normalized to GAPDH, FIG. 1, p<0.01 vs. control
Procedure: Primary human liver stellate cells were treated in DMEM containing 1% fetal bovine serum (FBS) for 24 hours. Next, they were treated with control vehicle or Oxy210. After 48 hours, RNA was extracted and analyzed by Q-RT-PCR for the expression of the genes as indicated and normalized to GAPDH expression.

[3] = tested on: profibrogenic genes; test: Basal expression of profibrogenic genes by Q-RT-PCR in primary human pericytes; assay type: cell-based; conditions: DMEM 5% FBS, 72 hours, normalized to GAPDH, FIG. 2, p<0.01 vs. control
Procedure: Primary human pericytes were treated with control vehicle or Oxy210 for 72 hours in DMEM containing 5% FBS. RNA was extracted and analyzed by Q-RT-PCR for the expression of profibrotic genes and normalized to GAPDH expression.

[4] = tested on: C57BL/6 mice; test: Bleomycin-induced pulmonary fibrosis in mice, H&E staining of lung sections; assay type: in vivo; conditions: bleomycin once intratracheally, FIG. 10
Procedure: C57BL/6 mice were treated once intratracheally with bleomycin with or without pirfenidone or Oxy210.

[5] = tested on: Primary human renal proximal tubular epithelial cells; test: TGFβ-induced epithelial mesenchymal transition (EMT) of renal tubular epithelial cells, Q-RT-PCR of EMT markers and Gli1; assay type: cell-based; conditions: TGFβ 10 ng/mL, 48 hours, FIG. 4, p<0.01 vs. TGFβ
Procedure: Primary human renal proximal tubular epithelial cells cultured in RPMI containing 1% FBS were treated with TGFβ (10 ng/mL) in the absence or presence of Oxy210 for 48 hours. RNA was extracted and analyzed by Q-RT-PCR for the expression of the EMT markers and Gli1 and normalized to GAPDH expression.

[6] = tested on: IMR-90 cells; test: IMR-90 lung fibroblast cell proliferation (cell count); assay type: cell-based; conditions: IMR-90 normal human lung fibroblast cells, DMEM 1% FBS, 5 days; FIG. 5, p<0.01 vs. control
Procedure: IMR-90 cells were treated with Oxy210 at the concentrations as indicated in DMEM containing 1% FBS for 5 days and then were trypsinized and counted.

[7] = tested on: LL97A cells; test: TGFβ-induced COL1A1 and a-SMA expression by Q-RT-PCR in LL97A cells; assay type: cell-based, human; conditions: 48 hours, FIG. 8
Procedure: LL97A cells were pretreated in F12K medium containing 1% FBS for 24 hours and then the cells were treated with TGFβ in the absence or presence of Oxy210 at the indicated concentrations. After 48 hours, RNA was extracted and analyzed by Q-RT-PCR for the expression of the genes as indicated and normalized to GAPDH expression.

[8] = tested on: IMR-90 cells; test: Basal profibrotic gene expression by Q-RT-PCR in IMR-90 cells; assay type: cell-based, human; conditions: F12K 1% FBS, 72 hours, FIG. 7
Procedure: IMR-90 cells were treated in F12K medium containing 1% FBS and Oxy210 at the indicated concentrations for 72 hours. RNA was then extracted and analyzed by Q-RT-PCR for the expression of the genes as indicated and normalized to GAPDH expression.

[9] = tested on: LL97A cells; test: Basal COL1A1 expression by Q-RT-PCR in LL97A cells; assay type: cell-based, human; conditions: F12K 1% FBS, 72 hours, FIG. 9, p<0.01 vs control
Procedure: LL97A cells were treated in F12K medium containing 1% FBS and Oxy210 at the indicated concentrations for 72 hours. RNA was then extracted and analyzed by Q-RT-PCR for the expression of the genes as indicated and normalized to GAPDH expression.

Q: For `C[C@]12CC[C@H]3[C@@H](CC=C4C[C@@H](O)CC[C@@]43C)[C@@H]1CC[C@@H]2[C@](C)(O)CCc1cccnc1` [Oxy210], which cell proliferation [1] is on record?
A: inhibition of proliferation of LL97A human lung fibroblast cells

Q: What about the “basal expression of TGFβ target genes” value [2] of the same compound?
A: inhibition of basal expression of TGFβ target genes

Q: And the “basal expression of profibrogenic genes” value [3]?
A: inhibition of basal expression of profibrogenic genes

Q: And the “bleomycin-induced damages to the lung architecture” value [4]?
A: clear beneficial effect

Q: What about the “TGFβ-induced epithelial mesenchymal transition (EMT)” value [5] of the same compound?
A: inhibition of TGFβ-induced epithelial mesenchymal transition (EMT)

Q: What about the cell proliferation [6] of the same compound?
A: inhibition of IMR-90 normal human lung fibroblast cell proliferation

Q: What about the “TGFβ-induced COL1A1 expression” value [7] of the same compound?
A: inhibits

Q: And the “TGFβ-induced a-SMA expression” value [7]?
A: inhibits

Q: What about the “basal profibrotic gene expression” value [8] of the same compound?
A: inhibits basal profibrotic gene expression

Q: What about the “basal COL1A1 expression” value [9] of the same compound?
A: inhibits basal COL1A1 expression

Reference: patent US20230381201A1, “METHODS AND COMPOSITIONS FOR TREATING FIBROTIC DISEASES” (MAX BioPharma, Inc., priority 2020, published 2023)
